#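 In this assay, cells in 96-well plates receive the compound at five concentrations for 48 hours. Endpoints are linearly interpolated between the surrounding concentrations. The concentration for full growth arrest is given as TGI.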
# Columns and labels:
# Test in all cases: NCI-60 cell line screen, 48 h
# 786-0 renal = test system: 786-0 renal
# A498 renal = test system: A498 renal
# A549 NSCLC = test system: A549 NSCLC
# ACHN renal = test system: ACHN renal
# BT-549 breast = test system: BT-549 breast
# CAKI-1 renal = test system: CAKI-1 renal
# CCRF-CEM leukemia = test system: CCRF-CEM leukemia
# COLO 205 colon = test system: COLO 205 colon
# DU-145 prostate = test system: DU-145 prostate
# EKVX NSCLC = test system: EKVX NSCLC
# HCC-2998 colon = test system: HCC-2998 colon
# HCT-116 colon = test system: HCT-116 colon
# HCT-15 colon = test system: HCT-15 colon
# HL-60(TB) leukemia = test system: HL-60(TB) leukemia
# HOP-62 NSCLC = test system: HOP-62 NSCLC
# HOP-92 NSCLC = test system: HOP-92 NSCLC
# HS 578T breast = test system: HS 578T breast
# HT29 colon = test system: HT29 colon
# IGROV1 ovarian = test system: IGROV1 ovarian
# K-562 leukemia = test system: K-562 leukemia
# KM12 colon = test system: KM12 colon
# LOX IMVI melanoma = test system: LOX IMVI melanoma
# M14 melanoma = test system: M14 melanoma
# MALME-3M melanoma = test system: MALME-3M melanoma
# MCF7 breast = test system: MCF7 breast
# MDA-MB-231 breast = test system: MDA-MB-231 breast
# MDA-MB-435 = test system: MDA-MB-435
# MDA-N = test system: MDA-N
# NCI-H226 lung = test system: NCI-H226 lung
# NCI-H23 lung = test system: NCI-H23 lung
# NCI-H460 lung = test system: NCI-H460 lung
# NCI-H522 lung = test system: NCI-H522 lung
# NCI/ADR-RES ovarian = test system: NCI/ADR-RES ovarian
# OVCAR-3 ovarian = test system: OVCAR-3 ovarian
# OVCAR-4 ovarian = test system: OVCAR-4 ovarian
# OVCAR-5 ovarian = test system: OVCAR-5 ovarian
# OVCAR-8 ovarian = test system: OVCAR-8 ovarian
# PC-3 prostate = test system: PC-3 prostate
# RPMI-8226 leukemia = test system: RPMI-8226 leukemia
# RXF 393 renal = test system: RXF 393 renal
# SF-268 CNS = test system: SF-268 CNS
# SF-295 CNS = test system: SF-295 CNS
# SF-539 CNS = test system: SF-539 CNS
# SK-MEL-2 melanoma = test system: SK-MEL-2 melanoma
# SK-MEL-28 melanoma = test system: SK-MEL-28 melanoma
# SK-MEL-5 melanoma = test system: SK-MEL-5 melanoma
# SK-OV-3 ovarian = test system: SK-OV-3 ovarian
# SN12C renal = test system: SN12C renal
# SNB-19 CNS = test system: SNB-19 CNS
# SNB-75 CNS = test system: SNB-75 CNS
# SR leukemia = test system: SR leukemia
# SW-620 colon = test system: SW-620 colon
# T-47D breast = test system: T-47D breast
# TK-10 renal = test system: TK-10 renal
# U251 CNS = test system: U251 CNS
# UACC-257 melanoma = test system: UACC-257 melanoma
# UACC-62 melanoma = test system: UACC-62 melanoma
# UO-31 renal = test system: UO-31 renal
# MOLT-4 leukemia = test system: MOLT-4 leukemia
compound,measurement,setting,value
COc1ccc(C(=O)/C=C/c2cc(O)c(O)c(F)c2F)c(OC)c1,TGI,786-0 renal,41.9 µM
same,TGI,A498 renal,55.5 µM
same,TGI,A549 NSCLC,> 100 µM
same,TGI,ACHN renal,> 100 µM
same,TGI,BT-549 breast,70.5 µM
same,TGI,CAKI-1 renal,> 100 µM
same,TGI,CCRF-CEM leukemia,32.9 µM
same,TGI,COLO 205 colon,53.1 µM
same,TGI,DU-145 prostate,> 100 µM
same,TGI,EKVX NSCLC,> 100 µM
same,TGI,HCC-2998 colon,16.8 µM
same,TGI,HCT-116 colon,27.2 µM
same,TGI,HCT-15 colon,36.6 µM
same,TGI,HL-60(TB) leukemia,25.5 µM
same,TGI,HOP-62 NSCLC,92.7 µM
same,TGI,HOP-92 NSCLC,> 100 µM
same,TGI,HS 578T breast,> 100 µM
same,TGI,HT29 colon,> 100 µM
same,TGI,IGROV1 ovarian,> 100 µM
same,TGI,K-562 leukemia,> 100 µM
same,TGI,KM12 colon,33.5 µM
same,TGI,LOX IMVI melanoma,> 100 µM
same,TGI,M14 melanoma,> 100 µM
same,TGI,MALME-3M melanoma,31.3 µM
same,TGI,MCF7 breast,49.1 µM
same,TGI,MDA-MB-231 breast,58.2 µM
same,TGI,MDA-MB-435,82.9 µM
same,TGI,MDA-N,80.3 µM
same,TGI,NCI-H226 lung,56.6 µM
same,TGI,NCI-H23 lung,41.7 µM
same,TGI,NCI-H460 lung,22.8 µM
same,TGI,NCI-H522 lung,30.3 µM
same,TGI,NCI/ADR-RES ovarian,67.7 µM
same,TGI,OVCAR-3 ovarian,85.5 µM
same,TGI,OVCAR-4 ovarian,> 100 µM
same,TGI,OVCAR-5 ovarian,95.7 µM
same,TGI,OVCAR-8 ovarian,> 100 µM
same,TGI,PC-3 prostate,40.6 µM
same,TGI,RPMI-8226 leukemia,40.8 µM
same,TGI,RXF 393 renal,59.6 µM
same,TGI,SF-268 CNS,> 100 µM
same,TGI,SF-295 CNS,> 100 µM
same,TGI,SF-539 CNS,65.3 µM
same,TGI,SK-MEL-2 melanoma,33.6 µM
same,TGI,SK-MEL-28 melanoma,> 100 µM
same,TGI,SK-MEL-5 melanoma,25.3 µM
same,TGI,SK-OV-3 ovarian,98.1 µM
same,TGI,SN12C renal,32.2 µM
same,TGI,SNB-19 CNS,> 100 µM
same,TGI,SNB-75 CNS,79.5 µM
same,TGI,SR leukemia,26.8 µM
same,TGI,SW-620 colon,> 100 µM
same,TGI,T-47D breast,> 100 µM
same,TGI,TK-10 renal,88 µM
same,TGI,U251 CNS,32.1 µM
same,TGI,UACC-257 melanoma,41.8 µM
same,TGI,UACC-62 melanoma,42.8 µM
same,TGI,UO-31 renal,> 100 µM
O=C1C(c2c(O)[nH]c3ccc(Br)cc23)=Nc2ccccc21,TGI,786-0 renal,5.75 µM
same,TGI,A498 renal,14.1 µM
same,TGI,A549 NSCLC,17.3 µM
same,TGI,ACHN renal,12.2 µM
same,TGI,BT-549 breast,41 µM
same,TGI,CAKI-1 renal,38.8 µM
same,TGI,CCRF-CEM leukemia,> 100 µM
same,TGI,COLO 205 colon,31.4 µM
same,TGI,DU-145 prostate,27.2 µM
same,TGI,EKVX NSCLC,20.2 µM
same,TGI,HCC-2998 colon,13.5 µM
same,TGI,HCT-116 colon,6.47 µM
same,TGI,HCT-15 colon,> 100 µM
same,TGI,HL-60(TB) leukemia,> 100 µM
same,TGI,HOP-62 NSCLC,32.6 µM
same,TGI,HOP-92 NSCLC,34.9 µM
same,TGI,HS 578T breast,54.6 µM
same,TGI,HT29 colon,15 µM
same,TGI,IGROV1 ovarian,13 µM
same,TGI,K-562 leukemia,> 100 µM
same,TGI,KM12 colon,50.5 µM
same,TGI,LOX IMVI melanoma,25.8 µM
same,TGI,M14 melanoma,32.4 µM
same,TGI,MALME-3M melanoma,44.4 µM
same,TGI,MCF7 breast,3.72 µM
same,TGI,MDA-MB-231 breast,37.2 µM
same,TGI,MDA-MB-435,40.1 µM
same,TGI,MDA-N,34.8 µM
same,TGI,MOLT-4 leukemia,> 100 µM
same,TGI,NCI-H226 lung,34.3 µM
same,TGI,NCI-H23 lung,40.1 µM
same,TGI,NCI-H460 lung,44.6 µM
same,TGI,NCI-H522 lung,39.7 µM
same,TGI,NCI/ADR-RES ovarian,> 100 µM
same,TGI,OVCAR-3 ovarian,45.8 µM
same,TGI,OVCAR-4 ovarian,29.8 µM
same,TGI,OVCAR-5 ovarian,26 µM
same,TGI,OVCAR-8 ovarian,21.7 µM
same,TGI,PC-3 prostate,17.8 µM
same,TGI,RPMI-8226 leukemia,> 100 µM
same,TGI,RXF 393 renal,6.47 µM
same,TGI,SF-268 CNS,24.4 µM
same,TGI,SF-295 CNS,51 µM
same,TGI,SK-MEL-2 melanoma,28.3 µM
same,TGI,SK-MEL-28 melanoma,> 100 µM
same,TGI,SK-MEL-5 melanoma,18.6 µM
same,TGI,SK-OV-3 ovarian,40.9 µM
same,TGI,SN12C renal,> 100 µM
same,TGI,SNB-19 CNS,28.1 µM
same,TGI,SNB-75 CNS,28.4 µM
same,TGI,SR leukemia,> 100 µM
same,TGI,SW-620 colon,> 100 µM
same,TGI,T-47D breast,64.2 µM
same,TGI,TK-10 renal,27.8 µM
same,TGI,U251 CNS,26.2 µM
same,TGI,UACC-257 melanoma,57.3 µM
same,TGI,UACC-62 melanoma,28 µM
same,TGI,UO-31 renal,12.3 µM
